In the assay the target is T1, recombinant guanylate cyclase reporter cell line (Rattus norvegicus, UniProt P19686+P20595).
T1 construct: expressed in transfected cells
T1 sequence (P20595 1-619): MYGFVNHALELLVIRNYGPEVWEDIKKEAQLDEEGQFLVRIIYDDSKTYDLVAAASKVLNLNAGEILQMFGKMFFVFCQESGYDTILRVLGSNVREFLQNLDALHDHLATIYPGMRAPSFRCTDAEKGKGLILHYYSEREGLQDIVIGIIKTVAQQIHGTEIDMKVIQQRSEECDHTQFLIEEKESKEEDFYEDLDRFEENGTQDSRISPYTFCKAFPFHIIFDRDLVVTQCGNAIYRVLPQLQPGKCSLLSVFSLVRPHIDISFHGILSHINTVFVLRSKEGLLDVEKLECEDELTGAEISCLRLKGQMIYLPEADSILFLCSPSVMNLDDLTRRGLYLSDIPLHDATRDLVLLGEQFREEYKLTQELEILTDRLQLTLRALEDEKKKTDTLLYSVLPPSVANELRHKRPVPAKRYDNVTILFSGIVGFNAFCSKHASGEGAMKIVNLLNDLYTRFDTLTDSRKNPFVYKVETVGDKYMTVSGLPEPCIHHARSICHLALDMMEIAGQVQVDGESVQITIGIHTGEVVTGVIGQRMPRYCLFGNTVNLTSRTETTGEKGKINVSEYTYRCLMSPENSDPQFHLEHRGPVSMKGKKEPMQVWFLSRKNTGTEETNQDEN
T1 sequence (P19686 1-690): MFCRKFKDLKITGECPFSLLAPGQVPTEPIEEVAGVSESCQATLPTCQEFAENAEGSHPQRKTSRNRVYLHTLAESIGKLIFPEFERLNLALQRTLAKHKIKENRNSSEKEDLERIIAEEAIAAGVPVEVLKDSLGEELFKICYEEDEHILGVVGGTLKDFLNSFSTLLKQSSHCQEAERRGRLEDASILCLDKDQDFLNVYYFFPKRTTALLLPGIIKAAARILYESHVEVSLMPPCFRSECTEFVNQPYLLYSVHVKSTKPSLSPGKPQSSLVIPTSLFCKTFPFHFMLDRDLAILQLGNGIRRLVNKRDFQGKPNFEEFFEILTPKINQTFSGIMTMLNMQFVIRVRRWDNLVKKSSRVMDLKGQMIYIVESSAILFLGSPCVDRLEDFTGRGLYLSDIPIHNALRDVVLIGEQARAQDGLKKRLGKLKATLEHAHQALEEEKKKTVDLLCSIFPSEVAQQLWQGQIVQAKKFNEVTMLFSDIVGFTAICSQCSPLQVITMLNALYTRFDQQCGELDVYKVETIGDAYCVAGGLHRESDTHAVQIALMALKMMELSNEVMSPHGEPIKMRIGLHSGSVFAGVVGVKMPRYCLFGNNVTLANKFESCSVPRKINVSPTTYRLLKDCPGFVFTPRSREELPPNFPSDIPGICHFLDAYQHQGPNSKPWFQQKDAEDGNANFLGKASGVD
Put plainly: Action on recombinant guanylate cyclase reporter cell line. It counts as cell-based. The following applies: in some cases mean values obtained from individual determinations. The essentials:
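Cell-based reporter assay with recombinant guanylate cyclase expressed in a reporter cell line, per a published method. Activity reported as minimal effective concentration (MEC), in some cases as the mean of individual determinations.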

In the case of `Cc1nc2c(OCC3CCCCC3)cccn2c1C(=O)NC[C@@H](O)CO` [Example 80, 8-(cyclohexylmethoxy)-N-[(2R)-2,3-dihydroxypropyl]-2-methylimidazo[1,2-a]pyridine-3-carboxamide], the “MEC (minimal effective concentration)” value was 0.3 µM.
To `Cc1nc2c(OCC3CCCCC3)cccn2c1C(=O)NCCCO` [Example 82, 8-(cyclohexylmethoxy)-N-(3-hydroxypropyl)-2-methylimidazo[1,2-a]pyridine-3-carboxamide] belongs 0.3 µM.
As to `Cc1nc2c(OCC3CCCCC3)cccn2c1C(=O)NC1CCCC1O` (stereo not drawn) [Example 83, 8-(cyclohexylmethoxy)-N-(2-hydroxycyclopentyl)-2-methylimidazo[1,2-a]pyridine-3-carboxamide], the “MEC (minimal effective concentration)” value was found to be 0.3 µM.
`Cc1nc2c(OCC3CCCCC3)cccn2c1C(=O)NC(C)CO` (stereo not drawn) [Example 84, 8-(cyclohexylmethoxy)-N-(1-hydroxypropan-2-yl)-2-methylimidazo[1,2-a]pyridine-3-carboxamide]: the “MEC (minimal effective concentration)” value was 0.3 µM.
Consider `Cc1nc2c(OCC3CCCCC3)cccn2c1C(=O)NC(CO)CO` [Example 85, 8-(cyclohexylmethoxy)-N-(1,3-dihydroxypropan-2-yl)-2-methylimidazo[1,2-a]pyridine-3-carboxamide], for which the “MEC (minimal effective concentration)” value was 0.38 µM.
With `Cc1nc2c(OCC3CCCCC3)cccn2c1C(=O)NCCOCCO` [Example 86, 8-(cyclohexylmethoxy)-N-[2-(2-hydroxyethoxy)ethyl]-2-methylimidazo[1,2-a]-pyridine-3-carboxamide], the “MEC (minimal effective concentration)” value is 0.65 µM.
Regarding `Cc1nc2c(OCC3CCCCC3)cccn2c1C(=O)NC(C)(C)C(C)O` (stereo not drawn) [Example 87, 8-(cyclohexylmethoxy)-N-(3-hydroxy-2-methylbutan-2-yl)-2-methylimidazo[1,2-a]pyridine-3-carboxamide], the “MEC (minimal effective concentration)” value turned out to be 1.0 µM.
Regarding `CC[C@@H](CO)NC(=O)c1c(C)nc2c(OCC3CCCCC3)cccn12` [Example 88, 8-(cyclohexylmethoxy)-N-[(2S)-1-hydroxybutan-2-yl]-2-methylimidazo[1,2-a]pyridine-3-carboxamide], the “MEC (minimal effective concentration)” value is 1.0 µM.
`CCC[C@@H](CO)NC(=O)c1c(C)nc2c(OCC3CCCCC3)cccn12` [Example 89, 8-(cyclohexylmethoxy)-N-[(2S)-1-hydroxypentan-2-yl]-2-methylimidazo[1,2-a]pyridine-3-carboxamide]: the “MEC (minimal effective concentration)” value worked out at 1.0 µM.
On to `CSCC[C@@H](CO)NC(=O)c1c(C)nc2c(OCC3CCCCC3)cccn12` [Example 90, 8-(cyclohexylmethoxy)-N-[(2S)-1-hydroxy-4-(methylsulphanyl)butan-2-yl]-2-methylimidazo[1,2-a]pyridine-3-carboxamide], for which the “MEC (minimal effective concentration)” value came to 1.0 µM.
Take `CC[C@H](C)[C@@H](CO)NC(=O)c1c(C)nc2c(OCC3CCCCC3)cccn12` [Example 91, 8-(cyclohexylmethoxy)-N-[(2S,3S)-1-hydroxy-3-methylpentan-2-yl]-2-methylimidazo[1,2-a]pyridine-3-carboxamide]: the “MEC (minimal effective concentration)” value was 1.0 µM.
Take `Cc1nc2c(OCC3CCCCC3)cccn2c1C(=O)NC1(CO)CCCC1` [Example 92, 8-(cyclohexylmethoxy)-N-[1-(hydroxymethyl)cyclopentyl]-2-methylimidazo[1,2-a]pyridine-3-carboxamide]: the “MEC (minimal effective concentration)” value amounted to 1.0 µM.
As to `Cc1nc2c(OCC3CCCCC3)cccn2c1C(=O)N[C@H](CO)C(C)C` [Example 93, 8-(cyclohexylmethoxy)-N-[(2S)-1-hydroxy-3-methylbutan-2-yl]-2-methylimidazo[1,2-a]pyridine-3-carboxamide], the “MEC (minimal effective concentration)” value was found to be 1.0 µM.
Take `Cc1nc2c(OCC3CCCCC3)cccn2c1C(=O)NC(CO)COC(C)(C)C` (stereo not drawn) [Example 94, N-(1-tert-butoxy-3-hydroxypropan-2-yl)-8-(cyclohexylmethoxy)-2-methylimidazo[1,2-a]-pyridine-3-carboxamide]: the “MEC (minimal effective concentration)” value was 3.0 µM.
Next, `Cc1nc2c(OCC3CCCCC3)cccn2c1C(=O)N[C@H](CO)CC(C)C` [Example 95, 8-(cyclohexylmethoxy)-N-[(2S)-1-hydroxy-4-methylpentan-2-yl]-2-methylimidazo[1,2-a]pyridine-3-carboxamide]: 3.0 µM; `CCC(C)[C@H](CO)NC(=O)c1c(C)nc2c(OCC3CCCCC3)cccn12` (stereo partly drawn) [Example 96, 8-(cyclohexylmethoxy)-N-[(2R)-1-hydroxy-3-methylpentan-2-yl]-2-methylimidazo[1,2-a]pyridine-3-carboxamide]: 3.0 µM.
For the molecule `Cc1nc2c(OCC3CCC3)cccn2c1C(=O)NCCC1(O)CCCC1` [Example 97, 8-(cyclobutylmethoxy)-N-[2-(1-hydroxycyclopentyl)ethyl]-2-methylimidazo[1,2-a]pyridine-3-carboxamide], the “MEC (minimal effective concentration)” value amounted to 1.0 µM.
Take `Cc1nc2c(OCC3CCC3)cccn2c1C(=O)NCCOCCO` [Example 98, 8-(cyclobutylmethoxy)-N-[2-(2-hydroxyethoxy)ethyl]-2-methylimidazo[1,2-a]pyridine-3-carboxamide]: the “MEC (minimal effective concentration)” value amounted to 3.0 µM.
Consider `Cc1nc2c(OCC3CCC3)cccn2c1C(=O)NCCC1(O)CCCCC1` [Example 99, 8-(cyclobutylmethoxy)-N-[2-(1-hydroxycyclohexyl)ethyl]-2-methylimidazo[1,2-a]pyridine-3-carboxamide], for which the “MEC (minimal effective concentration)” value amounted to 3.0 µM.
Next, `[2H]C([2H])(Oc1cccn2c(C(=O)N[C@@H](CO)CCCC)c(C)nc12)c1c(F)cccc1F` [Example 115, 8-{[(2,6-difluorophenyl)(^2H2)methyl]oxy}-N-[(2R)-1-hydroxyhexan-2-yl]-2-methylimidazo[1,2-a]pyridine-3-carboxamide]: 0.01 µM; `Cc1nc2c(OCc3c(F)cccc3F)cccn2c1C(=O)NCCC1(O)CCCCC1` [Example 116, 8-[(2,6-difluorobenzyl)oxy]-N-[2-(1-hydroxycyclohexyl)ethyl]-2-methylimidazo[1,2-a]pyridine-3-carboxamide]: 0.3 µM.
`Cc1nc2c(OCc3c(F)cccc3F)cccn2c1C(=O)NCCC1(O)CCCC1` [Example 117, 8-[(2,6-difluorobenzyl)oxy]-N-[2-(1-hydroxycyclopentyl)ethyl]-2-methylimidazo[1,2-a]pyridine-3-carboxamide]: the “MEC (minimal effective concentration)” value was determined as 0.03 µM.
To `Cc1nc2c(OCc3c(F)cccc3F)cccn2c1C(=O)N[C@H](C)CO` [Example 118, 8-[(2,6-difluorobenzyl)oxy]-N-[(2R)-1-hydroxypropan-2-yl]-2-methylimidazo[1,2-a]-pyridine-3-carboxamide] belongs 0.3 µM; to `Cc1nc2c(OCc3c(F)cccc3F)cccn2c1C(=O)NC1(CO)CCC1` [Example 125, 8-[(2,6-Difluorobenzyl)oxy]-N-[1-(hydroxymethyl)cyclobutyl]-2-methylimidazo[1,2-a]pyridine-3-carboxamide], 0.3 µM; to `C#Cc1cc(OCc2c(F)cccc2F)c2nc(C)c(C(=O)N[C@@H](CO)CCCC)n2c1` [Example 126, 8-[(2,6-Difluorobenzyl)oxy]-6-ethynyl-N-[(2R)-hydroxyhexan-2-yl]-2-methylimidazo[1,2-a]-pyridine-3-carboxamide], 0.1 µM.
As to `Cc1nc2c(OCc3c(F)cccc3F)cc(Cl)cn2c1C(=O)N[C@@H](CO)CCCO` [Example 127, 6-Chloro-8-[(2,6-difluorobenzyl)oxy]-N-[(2R)-1,5-dihydroxypentan-2-yl]-2-methylimidazo[1,2-a]-pyridine-3-carboxamide], the “MEC (minimal effective concentration)” value was 0.3 µM.
As for `Cc1nc2c(OCc3c(F)cccc3F)cc(Cl)cn2c1C(=O)N[C@@H](CO)CCO` [Example 128, 6-chloro-8-[(2,6-difluorobenzyl)oxy]-N-[(2R)-1,4-dihydroxybutan-2-yl]-2-methylimidazo[1,2-a]pyridine-3-carboxamide], the “MEC (minimal effective concentration)” value was 0.3 µM.

The record behind these values is patent US8946215B2, “Hydroxy-substituted imidazo[1,2-a]pyridinecarboxamides and their use” (Bayer Pharma Aktiengesellschaft, priority 2012, dated 2015).
